Where “and” joins values, the source holds several entries; their conditions need not be identical. Equal entries are not always repeated. Where two headings read alike, the source gives them in different places. Square brackets hold non-standard residues; d marks the D form. * marks the point of attachment. Dap = NC[C@H](N)C(=O)O; Bn = c1ccc(C*)cc1
Experiments:
[1] = molecular target: kappa opioid receptor (KOR) (Rattus norvegicus, UniProt P34975); test: biochemical; format: binding
mu opioid receptor (MOR) = mu opioid receptor (MOR) (Rattus norvegicus, UniProt P33535); test: Radioligand binding assay, MOR
Chain of mu opioid receptor (MOR) (P33535 whole entry): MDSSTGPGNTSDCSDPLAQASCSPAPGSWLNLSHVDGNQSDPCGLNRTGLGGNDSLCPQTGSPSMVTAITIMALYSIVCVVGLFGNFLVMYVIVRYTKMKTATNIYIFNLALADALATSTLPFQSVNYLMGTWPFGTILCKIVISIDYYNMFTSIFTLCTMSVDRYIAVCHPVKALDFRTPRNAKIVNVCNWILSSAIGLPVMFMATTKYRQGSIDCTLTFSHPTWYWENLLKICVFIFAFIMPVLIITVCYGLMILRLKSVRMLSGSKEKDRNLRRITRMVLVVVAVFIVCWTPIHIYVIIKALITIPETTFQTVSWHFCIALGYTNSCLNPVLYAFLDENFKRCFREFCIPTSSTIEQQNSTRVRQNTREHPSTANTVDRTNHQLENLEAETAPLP

KOR [2] = molecular target: T1, KOR (Rattus norvegicus, UniProt P34975); test: Agonist stimulated [^35S]GTPγS binding assay, agonist efficacy; format: biochemical
T1 sequence (P34975 whole entry): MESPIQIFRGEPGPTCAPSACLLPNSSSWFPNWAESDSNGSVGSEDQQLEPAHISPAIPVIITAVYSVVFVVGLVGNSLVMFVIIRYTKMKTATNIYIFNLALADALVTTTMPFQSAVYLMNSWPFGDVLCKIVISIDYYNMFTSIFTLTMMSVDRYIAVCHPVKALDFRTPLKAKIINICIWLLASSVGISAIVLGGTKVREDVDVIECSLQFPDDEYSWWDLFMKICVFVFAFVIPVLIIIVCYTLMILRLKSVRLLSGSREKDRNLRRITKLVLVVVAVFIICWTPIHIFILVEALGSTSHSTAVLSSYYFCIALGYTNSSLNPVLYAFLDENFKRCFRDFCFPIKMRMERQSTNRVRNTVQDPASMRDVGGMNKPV

KOR [3] = molecular target: T1, KOR; test: Schild analysis against Dyn A; format: biochemical
KOR [4] = molecular target: T1, KOR; details: after a single dose; cited from earlier work
[5] = system: stress-induced reinstatement of cocaine seeking behavior; details: mice, s.c. administration; cited from earlier work
KOR [6] = molecular target: T1, KOR; details: read-out: KOR Ki found previously; cited from earlier work

Chain of kappa opioid receptor (KOR) (P34975 whole entry): as above

## CC(=O)NC[C@H](NC(=O)[C@H](CCCNC(=N)N)NC(=O)[C@H](CCCNC(=N)N)NC(=O)[C@H](CC(C)C)NC(=O)[C@H](Cc1ccccc1)NC(=O)CNC(=O)CNC(=O)[C@H](Cc1ccc(O)cc1)NCc1ccccc1)C(=O)N[C@@H](CCCNC(=N)N)C(=O)N1CCC[C@H]1C(=O)N[C@@H](CCCCN)C(N)=O [Peptide 3, NBn-Tyr^1-Gly-Gly-Phe-Leu-Arg-Arg-Dap(Ac)^8-Arg-Pro-Lys-NH2]
[1]
  Ki ratio, Ki (MOR)/Ki (KOR): 5
  Relative KOR affinity: 3.3
  fold higher KOR affinity compared to zyklophin: 3 fold
[1]; KOR Ki (nM ± SEM)
  Ki: 28 nM and 28.6 nM
Mu opioid receptor (MOR)
  Ki: 157 ± 25 nM
  fold higher MOR affinity than zyklophin: 28 fold
KOR [2]
  EC50: 39.5 ± 17.4 nM
KOR [2]; screened at 10 µM, compared to the full agonist Dyn A(1-13)NH2
  KOR efficacy in the GTPγS assay: 26%

## Oc1ccc2c3c1O[C@H]1c4[nH]c5c(c4C[C@@]4(O)[C@@H](C2)N(CC2CC2)CC[C@]314)C[C@@]1(O)[C@H]2Cc3ccc(O)c4c3[C@@]1(CCN2CC1CC1)[C@H]5O4 [norBNI, nor-binaltorphimine, reference compound]
KOR [3]
  Kb: 0.074 nM
KOR [4]
  duration of KOR antagonist activity: lasting weeks after a single dose

## N=C(N)NCCC[C@@H]1NC(=O)[C@H](CCCNC(=N)N)NC(=O)[C@H](NC(=O)[C@H](Cc2ccccc2)NC(=O)CNC(=O)CNC(=O)[C@H](Cc2ccc(O)cc2)NCc2ccccc2)CC(=O)NC[C@@H](C(=O)N[C@@H](CCCNC(=N)N)C(=O)N2CCC[C@H]2C(=O)N[C@@H](CCCCN)C(N)=O)NC1=O [Peptide 1, [N-benzyl-Tyr^1-cyclo(D-Asp^5,Dap^8)]dynorphin A(1-11)NH2]
[1]; KOR Ki 95% confidence interval, n = 10
  Ki: 30 to 160 nM
[1]; KOR Ki (nM ± SEM)
  Ki: 95.2 ± 28.8 nM
[1]; compared to zyklophin (1.0)
  Relative KOR affinity: 1.0
Mu opioid receptor (MOR)
  Ki: 4380 ± 560 nM
[5]
  stress-induced reinstatement of cocaine seeking behavior: suppressed

## CC(C)[C@@H](CN1CC[C@@](C)(c2cccc(O)c2)[C@@H](C)C1)NC(=O)[C@H]1Cc2ccc(O)cc2CN1 [JDTic, (3R)-7-hydroxy-N-[(2S)-1-[(3R,4R)-4-(3-hydroxyphenyl)-3,4-dimethylpiperidin-1-yl]-3-methylbutan-2-yl]-1,2,3,4-tetrahydroisoquinoline-3-carboxamide]
KOR [4]
  duration of KOR antagonist activity: lasting weeks after a single dose

## CC[C@H](C)[C@H](NC(=O)[C@H](CCCNC(=N)N)NC(=O)[C@H](CCCNC(=N)N)NC(=O)[C@@H](CC(N)=O)NC(=O)[C@H](Cc1ccccc1)NC(=O)CNC(=O)CNC(=O)[C@H](Cc1ccc(O)cc1)NCc1ccccc1)C(=O)N[C@@H](CCCNC(=N)N)C(=O)N1CCC[C@H]1C(=O)N[C@@H](CCCCN)C(N)=O [Peptide 2, NBn-Tyr^1-Gly-Gly-Phe-DAsn^5-Arg-Arg-Ile-Arg-Pro-Lys-NH2]
[1]
  fold lower KOR affinity compared to zyklophin: 4 fold

## [N-benzyl-Tyr^1,D-Asn^5,Dap(Ac)^8]Dyn A(1-11)NH2 (Bn-YGGF[dN]RR[Dap](Ac)RPK-NH2; not fully specified (residue 1))
KOR [6]
  Ki: 66.9 nM

## CC[C@H](C)[C@H](NC(=O)[C@H](CCCN=C(N)N)NC(=O)[C@H](CCCN=C(N)N)NC(=O)[C@H](CC(C)C)NC(=O)[C@H](Cc1ccccc1)NC(=O)CNC(=O)CNC(=O)[C@@H](N)Cc1ccc(O)cc1)C(=O)N[C@@H](CCCN=C(N)N)C(=O)N1CCC[C@H]1C(=O)N[C@@H](CCCCN)C(N)=O [Dyn A(1-11)NH2, reference compound]
[1]; KOR Ki (nM ± SEM)
  Ki: 2.6 ± 0.3 nM
